# Experimental data reported in article PMC11877286, “Discovery of novel theophylline derivatives bearing tetrazole scaffold for the treatment of Alzheimer's disease” (RSC Advances, 2025).
# Tests used:
# [1] = molecular target: T1, AChE (Homo sapiens, UniProt P22303); assay: biochemical; details: five concentrations 256 μM to 16 μM, triplicate, pH 8.0 buffer
# T1 construct: purchased Sigma-Aldrich
# Description: AChE inhibition was assessed on a Varioskan Lux 96-well plate reader. […] The IC50 values were determined using TableCurve 2Dv4 software.
# [2] = molecular target: T2, BACE1 (Homo sapiens, UniProt P56817); assay: BACE1 Inhibitor Screening Kit (FRET substrate); assay type: biochemical; details: 200 μM compound
# T2 construct: purchased Beyotime Biotech
# T2 sequence (P56817 46-501, species assumed): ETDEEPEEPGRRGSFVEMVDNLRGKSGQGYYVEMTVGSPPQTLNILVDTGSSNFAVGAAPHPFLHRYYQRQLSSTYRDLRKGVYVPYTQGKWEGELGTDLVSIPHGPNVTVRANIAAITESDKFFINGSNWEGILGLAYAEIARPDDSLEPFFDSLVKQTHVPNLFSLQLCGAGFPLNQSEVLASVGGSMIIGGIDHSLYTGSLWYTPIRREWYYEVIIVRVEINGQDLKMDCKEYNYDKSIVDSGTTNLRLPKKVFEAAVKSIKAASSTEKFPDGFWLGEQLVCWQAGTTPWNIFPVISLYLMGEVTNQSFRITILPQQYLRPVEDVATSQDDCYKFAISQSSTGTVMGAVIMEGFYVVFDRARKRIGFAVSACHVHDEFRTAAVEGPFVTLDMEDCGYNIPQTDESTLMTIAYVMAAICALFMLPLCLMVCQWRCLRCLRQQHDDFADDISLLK
# Description: Briefly, BACE1 was incubated with various concentrations of compounds for 5 min at 37 °C in a black 96-well plate, followed by adding a specific fluorescence resonance energy transfer (FRET) substrate into the reaction mixture. […] The inhibitory percentage of BACE1 activity was calculated as following: I(%) = (ΔFIcontrol − ΔFIcompound) × 100/ΔFIcontrol, in which ΔFI denotes the change of fluorescent intensity per min. The inhibitory activity of compounds was initially screened at a fixed concentration of 200 μM.
# T1 sequence (P22303 32-614): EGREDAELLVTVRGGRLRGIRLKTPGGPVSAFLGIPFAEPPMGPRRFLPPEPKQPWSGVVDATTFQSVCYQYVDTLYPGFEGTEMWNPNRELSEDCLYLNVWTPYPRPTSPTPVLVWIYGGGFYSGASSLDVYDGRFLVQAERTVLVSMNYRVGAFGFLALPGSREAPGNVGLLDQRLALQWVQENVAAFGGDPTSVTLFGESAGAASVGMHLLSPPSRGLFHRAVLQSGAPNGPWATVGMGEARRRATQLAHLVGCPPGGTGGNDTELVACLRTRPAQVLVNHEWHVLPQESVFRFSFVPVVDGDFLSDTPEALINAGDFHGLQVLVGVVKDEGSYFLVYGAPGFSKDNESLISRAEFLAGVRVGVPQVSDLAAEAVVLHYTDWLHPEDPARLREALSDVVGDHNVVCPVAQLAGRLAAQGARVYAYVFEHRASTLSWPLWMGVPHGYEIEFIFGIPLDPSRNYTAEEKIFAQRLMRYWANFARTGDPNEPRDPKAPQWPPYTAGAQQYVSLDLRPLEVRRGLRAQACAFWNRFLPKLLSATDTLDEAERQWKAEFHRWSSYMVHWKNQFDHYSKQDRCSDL
SMILES,IC50 [1],inhibition at 200 µM [2]
Cn1c(=O)c2c(ncn2Cc2nnn(CCCCC(=O)Nc3ccccc3)n2)n(C)c1=O [Compound 11],110 ± 17.5 µM,-0.32 ± 2.05%
Cn1c(=O)c2c(ncn2Cc2nnn(CCCCC(=O)Nc3ccc(I)cc3F)n2)n(C)c1=O [Compound 12],15.68 ± 0.06 µM,18.2 ± 3.9%
COc1ccc(OC(=O)CCCCn2nnc(Cn3cnc4c3c(=O)n(C)c(=O)n4C)n2)cc1 [Compound 13],303 ± 34.1 µM,1.4 ± 0.03%
Cn1c(=O)c2c(ncn2Cc2nnn(CCCCCC(=O)Nc3cccc(Cl)c3)n2)n(C)c1=O [Compound 14],153 ± 45 µM,-2.01 ± 0.83%
Cn1c(=O)c2c(ncn2Cc2nnn(CCCCCC(=O)Nc3ccc(Br)cc3)n2)n(C)c1=O [Compound 15],84.1 ± 20.2 µM,8.94 ± 1.45%
Cn1c(=O)c2c(ncn2Cc2nnn(CCCCCC(=O)Nc3ccc(F)c(Cl)c3)n2)n(C)c1=O [Compound 16],115 ± 10.6 µM,-1.54 ± 1.19%
Cn1c(=O)c2c(ncn2Cc2nnn(CCCCCC(=O)Nc3ccc(I)cc3F)n2)n(C)c1=O [Compound 17],105 ± 12.8 µM,18.7 ± 2.26%
Cn1c(=O)c2c(ncn2Cc2nnn(CCCCCC(=O)Oc3ccccc3)n2)n(C)c1=O [Compound 18],94.4 ± 8.27 µM,0.07 ± 3.57%
COc1ccc(OC(=O)CCCCCn2nnc(Cn3cnc4c3c(=O)n(C)c(=O)n4C)n2)cc1 [Compound 19],267 ± 30.4 µM,-1.23 ± 0.35%
Cn1c(=O)c2c(ncn2Cc2nnn(CCCCCCC(=O)Nc3cccc(Cl)c3)n2)n(C)c1=O [Compound 20],221 ± 37.7 µM,10.7 ± 0.54%
Cn1c(=O)c2c(ncn2Cc2nnn(CCCCCCC(=O)Nc3ccc(Cl)cc3)n2)n(C)c1=O [Compound 21],126 ± 22.4 µM,12.2 ± 0.47%
Cn1c(=O)c2c(ncn2Cc2nnn(CCCCCCC(=O)Nc3ccc(Br)cc3)n2)n(C)c1=O [Compound 22],63.5 ± 2.48 µM,1.56 ± 3.43%
Cn1c(=O)c2c(ncn2Cc2nnn(CCCCCCC(=O)Nc3ccc(F)c(Cl)c3)n2)n(C)c1=O [Compound 23],110 ± 17.2 µM,12.6 ± 0.45%
COc1ccc(OC(=O)CCCCCCn2nnc(Cn3cnc4c3c(=O)n(C)c(=O)n4C)n2)cc1 [Compound 24],106 ± 25.7 µM,0.74 ± 0.17%
Cn1c(=O)c2c(ncn2Cc2nnnn2CCCCCCC(=O)Nc2ccc(Br)cc2)n(C)c1=O [Compound 25],70.3 ± 0.1 µM,-0.48 ± 0.76%
Cn1c(=O)c2c(ncn2Cc2nnnn2CCCCCCC(=O)Nc2ccc(F)c(Cl)c2)n(C)c1=O [Compound 26],55.4 ± 18.6 µM,8.89 ± 0.49%
Cn1c(=O)c2c(ncn2Cc2nnnn2CCCCCCC(=O)Nc2ccc(I)cc2F)n(C)c1=O [Compound 27],143 ± 23.1 µM,7.69 ± 0.86%
